In one test the target is T1, AdipoR1 (Homo sapiens, UniProt Q96A54).
T1 construct: His; host or cells: HEK293
T1 sequence (Q96A54 1-375): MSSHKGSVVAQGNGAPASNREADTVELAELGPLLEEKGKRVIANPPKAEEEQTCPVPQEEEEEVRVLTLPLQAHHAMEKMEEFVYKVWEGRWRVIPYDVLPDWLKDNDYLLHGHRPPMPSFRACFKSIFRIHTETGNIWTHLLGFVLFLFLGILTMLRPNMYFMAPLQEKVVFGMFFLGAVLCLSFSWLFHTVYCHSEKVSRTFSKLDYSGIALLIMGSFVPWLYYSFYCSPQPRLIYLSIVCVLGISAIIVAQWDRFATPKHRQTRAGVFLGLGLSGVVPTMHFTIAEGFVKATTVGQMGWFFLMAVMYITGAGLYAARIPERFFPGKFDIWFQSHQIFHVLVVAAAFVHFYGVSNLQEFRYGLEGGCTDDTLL
Briefly: HTRF binding, AdipoR1 overexpression HEK293 cells. As to conditions: in words. The procedure:
The expression plasmid of AdipoR1 and AdipoR2 were synthesized and codon optimized by Genescript (Nanjing, China) for their expression in HEK293 cell line. The concentration of FITC-JT003 was 0, 0.1, 0.25, 0.5, 1, 2.5 or 5 μM respectively. Unlabeled peptide JT003 was used as the control to measure the non-specific signal. 10E4 AdipoR1 and AdipoR2 overexpression cells, anti-His-Tb (ThermoFisher Scientific, USA) and JT003-FITC were added into a 384-well plate, with a total volume of 25μl. The mixtures were incubated at room temperature for 30 min in the dark. Fluorescent values at 520 nm and 620 nm were measured for Kd calculation.

The test system of test [1] is liver protein expression of CCl4 induced liver fibrosis mice. As to the kind of experiment: CCl4 mice: liver western blot. The class given is in vivo, mouse. The procedure:
Male mice liver fibrosis was induced by intraperitoneal injection of 20% CCl4 (Sigma, USA) diluted in corn oil (Aladdin, China) every 3 days for 6 weeks (n = 6; 5 ml kg^−1 body weight). Mice injected with equivalent volume of corn oil serves as control group (n = 6). Liver fibrosis mice treated with JT003 for 3 weeks were used to evaluated the pharmacological effects (n = 6; 500 μg kg^−1; daily intraperitoneal injection).
Total protein was isolated from cells or liver samples using RIPA lysis buffer (50.0 mM Tris-HCl (pH = 8.0), 150.0 mM NaCl, 0.02% NaN3, 0.1% SDS, 1% NP-40, 0.5% deoxysodium cholate, 1 mM EDTA, […]). The protein concentration was quantified with BCA kit (Pierce, ThermoFisher Scientific, USA). Thirty micrograms protein were separated by 10 or 12% sodium dodecyl sulfate-polyacrylamide gel electrophoresis depending on the band of target protein, then transferred onto equilibrated polyvinylidene difluoride membrane (PVDF, Immobilon®-PSQ transfer membranes, Merck Millipore, Germany). Membranes were incubated with primary antibodies overnight at 4 °C. Specific antibodies were listed in Supplementary Table 3. After incubation with the secondary antibody, proteins were detected by enhanced chemiluminescence (Glarity^TM Western ECL Substrate, Bio-Rad, USA) and the signals were recorded and quantified with Tanon-Image Software (Shanghai, China). Reference antibody GAPDH were used for data normalization.
In general terms: Immunoblotting shows a protein as a band on a membrane.

Setting [2] is: Figure 7e, liver western blot, CCl4 + JT003 group, single replicates, n = 4.
The mark [3] stands for this setting: Figure 7f, liver western blot, CCl4 + JT003 group, single replicates, n = 4.

Here are results for 1 compound from paper PMC7669869, “AdipoR1/AdipoR2 dual agonist recovers nonalcoholic steatohepatitis and related fibrosis via endoplasmic reticulum-mitochondria axis” (Nature Communications, 2020).

Where “and” joins values, the source holds several entries; their conditions need not be identical. Identical values can stand only once. Non-standard residues stand in square brackets, D forms with d. Residues, ends and D or L forms follow the SMILES beside them. Nva = CCC[C@H](N)C(=O)O

`CCC[C@H](NC(=O)[C@@H]1CCCN1)C(=O)N[C@@H](CC(C)C)C(=O)N[C@@H](Cc1ccc(O)cc1)C(=O)N[C@@H](Cc1ccc(O)cc1)C(=O)N[C@@H](Cc1ccccc1)C(=O)N[C@@H](C)C(N)=O` [JT003] (H-P[Nva]LYYFA-NH2): the “Kd value for AdipoR1 compared to JT006 and ADP355” value at AdipoR1 is given as “significantly lower Kd value”. In addition, the “NFκB (western blotting)” value in test [1] (CCl4 fibrosis mice, liver, JT003 500 μg kg−1, in words) was “significantly downregulated”. The “phosphorylation levels of JNK, eIF2α and PERK” value in test [1] (CCl4 induced fibrosis mice, liver, JT003 500 μg kg−1, in words) is “decreased phosphorylation levels”. Moreover, in test [1] (CCl4 mice, JT003 500 μg kg−1, in words), the “αSMA and COL1α1 (western blot, liver)” value is recorded as “significant downregulation”. In test [1] (setting [2]), the pJNK/JNK was 0.7206 and 0.4902 and 0.6285 and 0.438; the pPERK/PERK was 0.5616 and 0.9445 and 0.6641 and 0.5949; the peIF2a/eIF2a is 1.116 and 0.4247 and 0.9192 and 0.3729. In test [1] (setting [3]), the CYP2E1/GAPDH was 1.469 and 1.0581 and 1.298 and 1.11; the PGC1a/GAPDH is 2.2635 and 2.209 and 2.565 and 2.497. For the same compound, the “anti-PP65 / anti-P65 western blot quantification” value in test [1] (Figure 6d, liver, CCl4 + JT003 group, single replicates, n = 4) is 0.3517 and 0.3717 and 0.2194 and 0.5295.
